Source: patent US10494378B2, “Fused ring pyrimidine compound, intermediate, and preparation method, composition and use thereof” (GUANGZHOU MAXINOVEL PHARMACEUTICALS CO., LTD., priority 2015, dated 2019)

Experiments:
Format in all cases: biochemical
[1] = molecular target: T1, JAK1 kinase (Homo sapiens, UniProt P23458); assay: IC50 evaluation assay on JAK1 kinase inhibition (Caliper); details: adenosine triphosphate at Km; 1 hour at 28° C.; average of two tests; read-out: IC50 (nM) inhibiting JAK 1 kinase
T1 construct: purchased Carna 08-144
Procedure: (§1) 1. The compound was dissolved in 100% DMSO, diluted into solutions with appropriate concentration gradients with water according to experimental requirement, and added to a 384-well plate.
(§2) 2. JAK2 kinase (Carna, Cat. No. 08-045, Lot. No. 07CBS-1927) and JAK3 kinase (Carna, Cat. No. 08-046, Lot. No. 08CBS-0371) were diluted to the optimum concentration with the following buffer solution: 50 mM HEPES, pH 7.5, 0.0015% Brij-35, 2 mM DTT. JAK1 kinase (Carna, Cat. No. 08-144, Lot. No. 11CBS-0144D) was diluted to the optimum concentration with the following buffer solution: 25 mM HEPES pH 7.5, 0.01% Brij-35, 2 mM DTT, 0.01M Triton. Transfer to the 384-well plate and incubated with the compound for a period of time.
(§3) 3. […] The substrate of JAK1 was diluted to the optimum concentration with the following buffer: 25 mM HEPES, pH 7.5, 0.01% Brij-35, 10 mM MgCl2, 0.01M Triton, adenosine triphosphate at Km. Add to the 384-well plate to initiate there action and react for 1 hour at 28° C.
(§4) 4. 1 Eq. of sulfuric acid solution was added to terminate the reaction, the conversion rate was read with Caliper Reader. The inhibition rate was calculated as the average of two tests.

[2] = molecular target: T2, JAK2 kinase (Homo sapiens, UniProt O60674); assay: IC50 evaluation assay on JAK2 kinase inhibition (Caliper); details: adenosine triphosphate at Km; 1 hour at 28° C.; average of two tests; read-out: IC50 (nM) inhibiting JAK 2 kinase
T2 construct: purchased Carna 08-045
Procedure: as §1, §2, §3, §4

[3] = molecular target: T3, JAK3 kinase (Homo sapiens, UniProt P52333); assay: IC50 evaluation assay on JAK3 kinase inhibition (Caliper); details: adenosine triphosphate at Km; 1 hour at 28° C.; average of two tests; read-out: IC50 (nM) inhibiting JAK 3 kinase
T3 construct: purchased Carna 08-046
T3 sequence (P52333 1-1124): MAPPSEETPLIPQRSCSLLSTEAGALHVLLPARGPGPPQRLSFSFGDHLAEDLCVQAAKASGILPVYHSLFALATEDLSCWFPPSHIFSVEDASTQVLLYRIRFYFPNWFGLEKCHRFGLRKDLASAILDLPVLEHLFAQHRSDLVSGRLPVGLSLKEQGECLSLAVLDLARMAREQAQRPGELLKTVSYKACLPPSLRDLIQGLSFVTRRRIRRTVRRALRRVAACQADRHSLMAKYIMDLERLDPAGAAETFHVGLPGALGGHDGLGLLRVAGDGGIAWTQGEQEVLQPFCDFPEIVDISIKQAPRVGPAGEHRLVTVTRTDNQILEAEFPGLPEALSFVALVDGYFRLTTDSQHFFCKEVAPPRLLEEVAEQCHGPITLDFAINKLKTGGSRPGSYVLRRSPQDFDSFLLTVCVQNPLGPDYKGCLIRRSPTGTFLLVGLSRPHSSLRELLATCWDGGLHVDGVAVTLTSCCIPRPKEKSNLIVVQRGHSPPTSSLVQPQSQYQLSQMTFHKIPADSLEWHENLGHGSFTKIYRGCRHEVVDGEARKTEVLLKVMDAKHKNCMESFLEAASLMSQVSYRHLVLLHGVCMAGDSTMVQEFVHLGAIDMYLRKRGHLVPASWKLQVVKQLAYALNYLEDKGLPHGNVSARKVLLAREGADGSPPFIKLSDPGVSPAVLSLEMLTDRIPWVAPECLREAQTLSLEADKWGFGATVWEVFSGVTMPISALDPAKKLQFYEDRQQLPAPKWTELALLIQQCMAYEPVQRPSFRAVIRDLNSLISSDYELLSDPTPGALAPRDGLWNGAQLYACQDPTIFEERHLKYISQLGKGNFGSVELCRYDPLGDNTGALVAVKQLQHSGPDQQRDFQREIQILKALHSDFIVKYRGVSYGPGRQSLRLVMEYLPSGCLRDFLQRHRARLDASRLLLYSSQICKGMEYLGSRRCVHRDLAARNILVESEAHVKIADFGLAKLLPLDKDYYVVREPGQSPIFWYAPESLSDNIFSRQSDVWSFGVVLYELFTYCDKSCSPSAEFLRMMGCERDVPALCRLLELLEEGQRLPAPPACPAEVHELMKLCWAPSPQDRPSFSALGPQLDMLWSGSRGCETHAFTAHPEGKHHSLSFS
Procedure: as §1, §2, §3, §4

T1 sequence (P23458 whole entry): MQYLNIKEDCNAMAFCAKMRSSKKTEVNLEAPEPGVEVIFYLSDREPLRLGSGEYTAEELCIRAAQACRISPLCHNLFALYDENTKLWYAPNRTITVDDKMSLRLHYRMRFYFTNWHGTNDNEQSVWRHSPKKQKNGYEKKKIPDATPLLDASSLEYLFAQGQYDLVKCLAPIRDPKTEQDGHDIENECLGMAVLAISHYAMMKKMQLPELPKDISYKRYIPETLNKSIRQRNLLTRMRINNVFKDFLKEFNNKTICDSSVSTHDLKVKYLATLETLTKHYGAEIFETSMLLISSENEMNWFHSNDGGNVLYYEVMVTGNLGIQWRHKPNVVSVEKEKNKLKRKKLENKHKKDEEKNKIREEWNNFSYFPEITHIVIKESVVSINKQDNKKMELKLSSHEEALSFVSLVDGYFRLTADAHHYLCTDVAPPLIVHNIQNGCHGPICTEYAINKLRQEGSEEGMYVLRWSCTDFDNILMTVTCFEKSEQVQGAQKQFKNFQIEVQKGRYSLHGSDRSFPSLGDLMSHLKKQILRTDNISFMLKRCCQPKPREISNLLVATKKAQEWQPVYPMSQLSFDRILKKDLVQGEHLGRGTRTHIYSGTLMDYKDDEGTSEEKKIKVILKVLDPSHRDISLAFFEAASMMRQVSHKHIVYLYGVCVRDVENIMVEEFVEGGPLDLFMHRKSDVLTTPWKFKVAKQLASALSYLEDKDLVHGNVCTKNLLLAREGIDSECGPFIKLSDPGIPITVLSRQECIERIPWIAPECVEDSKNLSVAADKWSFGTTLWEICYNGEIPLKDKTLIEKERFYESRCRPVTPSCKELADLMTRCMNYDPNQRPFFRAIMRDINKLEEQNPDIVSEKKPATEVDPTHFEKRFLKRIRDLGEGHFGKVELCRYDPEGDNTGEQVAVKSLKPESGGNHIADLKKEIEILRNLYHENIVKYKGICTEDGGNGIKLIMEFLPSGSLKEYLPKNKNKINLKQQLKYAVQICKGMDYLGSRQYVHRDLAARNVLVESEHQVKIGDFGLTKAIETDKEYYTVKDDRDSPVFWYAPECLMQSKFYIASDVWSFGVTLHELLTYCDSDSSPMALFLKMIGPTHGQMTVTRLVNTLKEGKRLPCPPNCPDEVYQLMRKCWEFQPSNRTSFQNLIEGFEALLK
T2 sequence (O60674 whole entry): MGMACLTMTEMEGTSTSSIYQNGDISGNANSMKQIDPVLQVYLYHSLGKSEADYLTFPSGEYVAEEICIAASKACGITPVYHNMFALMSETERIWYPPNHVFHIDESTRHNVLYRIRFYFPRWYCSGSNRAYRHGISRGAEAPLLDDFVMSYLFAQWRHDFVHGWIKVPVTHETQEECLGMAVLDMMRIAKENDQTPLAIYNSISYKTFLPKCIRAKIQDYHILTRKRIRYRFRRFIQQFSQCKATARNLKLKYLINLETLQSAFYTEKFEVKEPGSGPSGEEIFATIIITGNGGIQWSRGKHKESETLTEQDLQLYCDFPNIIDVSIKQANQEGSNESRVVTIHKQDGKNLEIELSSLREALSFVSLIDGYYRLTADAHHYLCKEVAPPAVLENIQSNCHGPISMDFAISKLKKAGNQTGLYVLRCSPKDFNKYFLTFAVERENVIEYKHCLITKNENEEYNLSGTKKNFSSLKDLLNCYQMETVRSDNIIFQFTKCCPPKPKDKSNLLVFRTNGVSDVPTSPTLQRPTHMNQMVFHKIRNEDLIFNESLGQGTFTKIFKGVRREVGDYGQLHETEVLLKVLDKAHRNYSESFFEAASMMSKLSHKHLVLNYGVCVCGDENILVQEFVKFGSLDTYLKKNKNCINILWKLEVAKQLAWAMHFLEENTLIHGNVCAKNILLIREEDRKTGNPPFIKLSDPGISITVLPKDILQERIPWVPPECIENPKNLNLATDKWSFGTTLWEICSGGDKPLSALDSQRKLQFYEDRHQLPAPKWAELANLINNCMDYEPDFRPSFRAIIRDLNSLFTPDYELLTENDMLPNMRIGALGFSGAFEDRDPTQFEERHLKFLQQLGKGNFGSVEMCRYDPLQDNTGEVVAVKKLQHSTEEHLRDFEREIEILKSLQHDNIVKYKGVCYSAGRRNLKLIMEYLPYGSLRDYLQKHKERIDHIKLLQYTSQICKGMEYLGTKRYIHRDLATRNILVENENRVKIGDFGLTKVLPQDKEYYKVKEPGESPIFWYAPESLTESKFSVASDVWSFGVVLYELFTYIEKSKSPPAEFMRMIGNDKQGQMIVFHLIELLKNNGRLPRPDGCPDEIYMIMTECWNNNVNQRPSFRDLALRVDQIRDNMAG

COc1cc(F)ccc1-c1c(C)sc2cnc(Nc3cnn(C4CCN(CCO)CC4)c3)nc12 [Compound 34, 2-[4-(4-{[7-(4-fluoro-2-methoxyphenyl)-6-methylthieno[3,2-d]pyrimidinyl-2-yl]amino}-1H-pyrazol-1-yl)-piperidinyl-1-yl]-1-ethanol]
IC50 [1]: 5.6 nM
IC50 [2]: 0.71 nM
IC50 [3]: 1.1 nM
